{"source": "patent US8765982B2", "about": "“Synergistic anticoagulant composition” (priority 2009, dated 2014)", "key": {"blood clotting [1]": {"system": "blood clotting", "test": "Rat feeding study: overall effect on blood clotting and on the anticoagulant activity of warfarin", "type": "in vivo, Sprague-Dawley rats", "details": "rats; for effect on blood clotting time and levels of clotting factors, compound alone (in words): without warfarin, all three doses", "from_the_text": "The containers were modified to prevent spillage. Rats were provided with water ad libitum.\nThus diets were constructed at 0.1 mpk/d. 1 mpk/d and 10 mpk/d.\nControl to evaluate potentiation or diminution of warfarin effect."}, "clotting factor X": {"system": "clotting factor X", "test": "Rat feeding study: level of active coagulation factor X", "type": "in vivo, Sprague-Dawley rats", "details": "rats; for X %: in feed", "from_the_text": "(§1) Male, albino, Sprague-Dawley rats (n=100) weighing 150-175 g were placed in quarantine for 1 week and then housed in individual cages. To determine food consumption, rat chow in containers was weighed at the beginning and end of the day to determine the weight of the food consumed by each animal. The containers were modified to prevent spillage. Rats were provided with water ad libitum. The chow was composed of rolled oats, sugar and peanut oil (92:4:4) (w:w:w) plus a standard vitamin/mineral mix.\n(§2) Administration of anticoagulant was accomplished by uniformly dispersing the compound in the peanut oil used in the chow. […] […] Actual concentration of the drug to be applied will be based on the average food consumption determined for the rats.\n(§3) Groups of rats were established as follows for each UWEC-K compound:\n(§4) • A. Diet (Negative) controls: no anticoagulant additive to food • B. Positive controls: food treated with warfarin at LD50 concentration for a rat weighing 180 g • C. Control to evaluate potentiation or diminution of warfarin effect. […] The groups will be repeated for each of the two compounds. Four animals in each group were anaesthetized at 96 hours, and exsanguinated by cardiac puncture. Prior to exsanguination each animal was anesthetized by the intraperitoneal injection of 50 mg/kg of sodium pentothal. Blood was collected in 3.2% citrate in pediatric tubes and tested for prothrombin time and active coagulation factors VII and X. Factor V will also be tested as a marker of potential hepatic toxicity. […] Animals were monitored twice daily and any animals found in apparent distress with be immediately sacrificed as above."}, "[2]": {"test": "Rat feeding study: toxicity control (LDH, AST, ALT, Alkaline Phosphatase, creatinine in plasma and serum)", "details": "rats, in feed", "from_the_text": "as §1, §2, §3, §4"}, "clotting factor VII": {"system": "clotting factor VII", "test": "Rat feeding study: level of active coagulation factor VII", "type": "in vivo, Sprague-Dawley rats", "details": "rats; for VII %: in feed", "from_the_text": "as §1, §2, §3, §4"}, "blood clotting [3]": {"system": "blood clotting", "test": "Rat feeding study: prothrombin time", "type": "in vivo, Sprague-Dawley rats", "design": "Pro Time: unit not given beside the values", "details": "rats; for Pro Time: in feed", "from_the_text": "as §1, §2, §3, §4"}, "[4]": {"details": "10 days, co-administered with warfarin"}}, "note": "“And” between values parts separate entries of the source, which are not always exact repeats. Equal entries are not always repeated."}
{"smiles": "CC(=O)Oc1c2c(c(OC(C)=O)c3ccccc13)[C@@H]1C[C@H]2C2OC21", "note": "(stereo partly drawn) [UWEC-K2]", "values": [{"measurement": "effect on blood clotting time and levels of clotting factors, compound alone (in words)", "setting": "blood clotting [1]; 4 days", "value": "do not differ significantly from control"}, {"measurement": "effect on the activity of warfarin (in words)", "setting": "blood clotting [1]; 10 days of co-administration with warfarin", "value": "significantly enhance the effect of warfarin"}, {"measurement": "effect on blood clotting time and levels of clotting factors, compound alone (in words)", "setting": "blood clotting [1]; 10 days", "value": "do not differ significantly from control"}, {"measurement": "levels of Factor X reduced by a factor compared to control", "setting": "clotting factor X; [4]", "value": "~20"}, {"measurement": "levels of Factor X reduced by a factor relative to warfarin alone", "setting": "clotting factor X; [4]", "value": 4}, {"measurement": "X %", "setting": "clotting factor X; 4 days, 0.025 mpk", "value": 73.25, "unit": "%"}, {"measurement": "X %", "setting": "clotting factor X; 4 days, 0.25 mpk", "value": 61.00, "unit": "%"}, {"measurement": "X %", "setting": "clotting factor X; 4 days, 2.5 mpk", "value": 61.00, "unit": "%"}, {"measurement": "X %", "setting": "clotting factor X; 10 days, 0.025 mpk", "value": 64.17, "unit": "%"}, {"measurement": "X %", "setting": "clotting factor X; 10 days, 0.25 mpk", "value": 59.83, "unit": "%"}, {"measurement": "X %", "setting": "clotting factor X; 10 days, 2.5 mpk, 2.5 mg/kg", "value": "63.33% and 61.00%"}, {"measurement": "ALT", "setting": "[2]; 4 days, 0.025 mpk", "value": 40.25}, {"measurement": "AST", "setting": "[2]; 4 days, 0.025 mpk", "value": 104.75}, {"measurement": "Alk Phos", "setting": "[2]; 4 days, 0.025 mpk", "value": 213.50}, {"measurement": "Creat.", "setting": "[2]; 4 days, 0.025 mpk", "value": 0.10}, {"measurement": "LDH", "setting": "[2]; 4 days, 0.025 mpk", "value": 758.75}, {"measurement": "ALT", "setting": "[2]; 4 days, 0.25 mpk", "value": 45.00}, {"measurement": "AST", "setting": "[2]; 4 days, 0.25 mpk", "value": 135.33}, {"measurement": "Alk Phos", "setting": "[2]; 4 days, 0.25 mpk", "value": 240.33}, {"measurement": "Creat.", "setting": "[2]; 4 days, 0.25 mpk", "value": 0.10}, {"measurement": "LDH", "setting": "[2]; 4 days, 0.25 mpk", "value": 1496.33}, {"measurement": "ALT", "setting": "[2]; 4 days, 2.5 mpk", "value": 35.50}, {"measurement": "AST", "setting": "[2]; 4 days, 2.5 mpk", "value": 114.75}, {"measurement": "Alk Phos", "setting": "[2]; 4 days, 2.5 mpk", "value": 217.25}, {"measurement": "Creat.", "setting": "[2]; 4 days, 2.5 mpk", "value": 0.10}, {"measurement": "LDH", "setting": "[2]; 4 days, 2.5 mpk", "value": 1026.50}, {"measurement": "ALT", "setting": "[2]; 10 days, 0.025 mpk", "value": 48.17}, {"measurement": "AST", "setting": "[2]; 10 days, 0.025 mpk", "value": 132.33}, {"measurement": "Alk Phos", "setting": "[2]; 10 days, 0.025 mpk", "value": 241.67}, {"measurement": "Creat.", "setting": "[2]; 10 days, 0.025 mpk", "value": 0.10}, {"measurement": "LDH", "setting": "[2]; 10 days, 0.025 mpk", "value": 1552.33}, {"measurement": "ALT", "setting": "[2]; 10 days, 0.25 mpk", "value": 47.50}, {"measurement": "AST", "setting": "[2]; 10 days, 0.25 mpk", "value": 118.67}, {"measurement": "Alk Phos", "setting": "[2]; 10 days, 0.25 mpk", "value": 274.17}, {"measurement": "Creat.", "setting": "[2]; 10 days, 0.25 mpk", "value": 0.12}, {"measurement": "LDH", "setting": "[2]; 10 days, 0.25 mpk", "value": 1445.50}, {"measurement": "ALT", "setting": "[2]; 10 days, 2.5 mpk", "value": 48.50}, {"measurement": "AST", "setting": "[2]; 10 days, 2.5 mpk", "value": 110.67}, {"measurement": "Alk Phos", "setting": "[2]; 10 days, 2.5 mpk", "value": 264.17}, {"measurement": "Creat.", "setting": "[2]; 10 days, 2.5 mpk", "value": 0.15}, {"measurement": "LDH", "setting": "[2]; 10 days, 2.5 mpk", "value": 1234.50}, {"measurement": "levels of Factor VII reduced by a factor compared to control", "setting": "clotting factor VII; [4]", "value": "~20"}, {"measurement": "levels of Factor VII reduced by a factor relative to warfarin alone", "setting": "clotting factor VII; [4]", "value": 3}, {"measurement": "VII %", "setting": "clotting factor VII; 4 days, 0.025 mpk", "value": 366.25, "unit": "%"}, {"measurement": "VII %", "setting": "clotting factor VII; 4 days, 0.25 mpk", "value": 334.33, "unit": "%"}, {"measurement": "VII %", "setting": "clotting factor VII; 4 days, 2.5 mpk", "value": 395.50, "unit": "%"}, {"measurement": "VII %", "setting": "clotting factor VII; 10 days, 0.025 mpk", "value": 350.17, "unit": "%"}, {"measurement": "VII %", "setting": "clotting factor VII; 10 days, 0.25 mpk", "value": 295.17, "unit": "%"}, {"measurement": "VII %", "setting": "clotting factor VII; 10 days, 2.5 mpk, 2.5 mg/kg", "value": "325.33% and 286.83%"}, {"measurement": "prothrombin clotting time increase compared to control", "setting": "blood clotting [3]; [4]", "value": "almost an order of magnitude"}, {"measurement": "prothrombin clotting time increased by a factor relative to warfarin alone", "setting": "blood clotting [3]; [4]", "value": "over 4"}, {"measurement": "Pro Time", "setting": "blood clotting [3]; 4 days, 0.025 mpk", "value": 11.38}, {"measurement": "Pro Time", "setting": "blood clotting [3]; 4 days, 0.25 mpk", "value": 11.63}, {"measurement": "Pro Time", "setting": "blood clotting [3]; 4 days, 2.5 mpk", "value": 12.73}, {"measurement": "Pro Time", "setting": "blood clotting [3]; 10 days, 0.025 mpk", "value": 11.58}, {"measurement": "Pro Time", "setting": "blood clotting [3]; 10 days, 0.25 mpk", "value": 11.55}, {"measurement": "Pro Time", "setting": "blood clotting [3]; 10 days, 2.5 mpk, 2.5 mg/kg", "value": "11.57 and 11.63"}]}
